{"source": "paper PMC7356761", "about": "(Molecules, 2020)", "key": {"[1]": {"assay": "Partition coefficient, shake-flask n-octanol/phosphate buffer", "type": "physicochemical", "details": "n-octanol/0.1 M phosphate buffer pH 7.4, shake-flask", "protocol": "3.6. Determination of Partition Coefficient\nThe partition coefficient of [^125I]10 was measured, as previously reported with a slight modification. Briefly, [^125I]10 was added to the mixture of each 3 mL of n-octanol and 0.1 M phosphate buffer (pH 7.4) in a test tube. The test tube was vortexed for 1 min, left at room temperature for 10 min and centrifuged at 3000× g and 4 °C for 5 min. The n-octanol layer (2 mL) was transferred into a new test tube followed by adding 1 mL of new n-octanol and 3 mL of phosphate buffer. The radioactivity of each 1 mL layer, n-octanol and phosphate buffer was measured using an auto well gamma counter (n = 4). The log P value was calculated by the logarithm of the ratio of radioactivity per milliliter (cpm/mL) in n-octanol to that in phosphate buffer and represents mean ± SD."}, "H3255 tumor": {"system": "H3255 tumor", "assay": "Biodistribution in tumor-bearing mice, H3255 tumor", "type": "in vivo, mouse", "protocol": "(§1) Male ddY mice (27–30 g, 6 weeks old) and female BALB/c nu/nu mice (12–17 g, 4 weeks old) were purchased from Japan SLC Inc. (Hamamatsu, Japan). The mice were housed in a cage with free access to food and water maintained at a constant temperature (23–25 °C) with a 12 h light/dark cycle. […] The tumor reached palpable size 2- and 3-weeks post-inoculation. Animal experiments were conducted in accordance with laboratory guidelines for the care and use of animals of Kanazawa University. The animal handling protocol was approved by the Kanazawa University Animal Care Committee (approval number: AP-163766). 3.10. Biodistribution Studies Mice were injected intravenously via the lateral tail vein with a saline solution of [^125I]10 (25 kBq, 100 μL) containing 1% tween-80 and 10% ethanol. The ddY mice were sacrificed at 10 min, 1, 4 and 24 h; meanwhile, the tumor-bearing mice were sacrificed at 1 and 4 h post injection. The selected tissues and organs were collected and weighed and their radioactivity was measured using an auto well gamma counter. […] The mice were sacrificed 1 h after the administration of radiotracer. The biodistribution data are expressed as percent injected dose per gram of tissue (% ID/g) along with the SD."}, "[2]": {"system": "H1975 cells (L858R/T790M active mutant EGFR)", "assay": "Cellular uptake study, H1975", "type": "cell-based, human", "protocol": "3.8. Cellular Uptake Studies\nThen, the cell culture was incubated in a serum-free medium containing [^125I]10 (3.7 kBq/well) for 4 h. The medium from each well was removed and the cells were washed with 1 mL of ice-cold PBS. Finally, all cell fractions were lysed twice with 0.5 mL of 1 M NaOH aqueous solution. The radioactivity of every fraction was determined by an auto well gamma counter. Total cell protein was determined using the Bicinchoninic Acid (BCA) Protein Assay Kit (Nacalai) protocol, which uses bovine serum albumin as a standard reference. […]. All data were expressed as percent dose per milligram of protein (% dose/mg protein) ± SD."}, "[3]": {"assay": "Biodistribution in tumor-bearing mice, normal tissues", "type": "in vivo, mouse", "protocol": "as §1"}, "[4]": {"details": "Blocking (1 h), CO-1686 30 mg/kg i.p. 1 h prior"}}, "data": [{"smiles": "C=CC(=O)Nc1cc([125I])cc(Nc2nc(Nc3ccc(N4CCN(C(C)=O)CC4)cc3OC)ncc2C(F)(F)F)c1", "note": "[[^125I]10]", "values": [{"measurement": "logP", "setting": "[1]", "result": "1.84 ± 0.01"}, {"measurement": "Biodistribution, H3255 tumor", "setting": "H3255 tumor; [4]", "result": "1.47 (0.71) % ID/g tissue"}, {"measurement": "Biodistribution, H3255 tumor", "setting": "H3255 tumor; i.v., 1 h", "result": "1.63 (0.23) % ID/g tissue"}, {"measurement": "Biodistribution, H3255 tumor", "setting": "H3255 tumor; i.v., 1 h, listed as [^125I]ICO1686", "result": "1.63 ± 0.23", "unit": "% ID/g tissue"}, {"measurement": "Biodistribution, H3255 tumor", "setting": "H3255 tumor; i.v., 4 h", "result": "0.70 (0.13) % ID/g tissue"}, {"measurement": "cell uptake", "setting": "[2]; H1975, 4 h incubation", "result": 101.52, "unit": "% dose/mg protein"}, {"measurement": "cell uptake with blocking", "setting": "[2]; H1975, excess CO-1686 (100 µM)", "result": 45.61, "unit": "% dose/mg protein"}, {"measurement": "effect of gefitinib blocking on accumulation", "setting": "[2]; H1975, gefitinib 100 µM", "result": "did not reduce"}, {"measurement": "Biodistribution, Blood", "setting": "[3]; [4]", "result": "1.79 (0.21) % ID/g tissue"}, {"measurement": "Biodistribution, Bone", "setting": "[3]; [4]", "result": "1.07 (0.36) % ID/g tissue"}, {"measurement": "Biodistribution, Brain", "setting": "[3]; [4]", "result": "0.10 (0.02) % ID/g tissue"}, {"measurement": "Biodistribution, Heart", "setting": "[3]; [4]", "result": "1.53 (0.58) % ID/g tissue"}, {"measurement": "Biodistribution, Kidney", "setting": "[3]; [4]", "result": "4.19 (1.28) % ID/g tissue"}, {"measurement": "Biodistribution, Large intestine", "setting": "[3]; [4]", "result": "8.96 (7.48) % ID/g tissue"}, {"measurement": "Biodistribution, Liver", "setting": "[3]; [4]", "result": "21.77 (2.83) % ID/g tissue"}, {"measurement": "Biodistribution, Lung", "setting": "[3]; [4]", "result": "3.40 (0.93) % ID/g tissue"}, {"measurement": "Biodistribution, Muscle", "setting": "[3]; [4]", "result": "1.09 (0.42) % ID/g tissue"}, {"measurement": "Biodistribution, Pancreas", "setting": "[3]; [4]", "result": "3.87 (0.87) % ID/g tissue"}, {"measurement": "Biodistribution, Small intestine", "setting": "[3]; [4]", "result": "60.68 (6.67) % ID/g tissue"}, {"measurement": "Biodistribution, Spleen", "setting": "[3]; [4]", "result": "2.81 (0.77) % ID/g tissue"}, {"measurement": "Biodistribution, Stomach", "setting": "[3]; [4]", "result": "1.44 (0.57) % ID/organ"}, {"measurement": "Biodistribution, Blood", "setting": "[3]; i.v., 1 h", "result": "1.74 (0.18) % ID/g tissue"}, {"measurement": "Biodistribution, Bone", "setting": "[3]; i.v., 1 h", "result": "0.50 (0.40) % ID/g tissue"}, {"measurement": "Biodistribution, Brain", "setting": "[3]; i.v., 1 h", "result": "0.11 (0.08) % ID/g tissue"}, {"measurement": "Biodistribution, Heart", "setting": "[3]; i.v., 1 h", "result": "1.46 (0.31) % ID/g tissue"}, {"measurement": "Biodistribution, Kidney", "setting": "[3]; i.v., 1 h", "result": "5.26 (1.50) % ID/g tissue"}, {"measurement": "Biodistribution, Large intestine", "setting": "[3]; i.v., 1 h", "result": "18.65 (19.88) % ID/g tissue"}, {"measurement": "Biodistribution, Liver", "setting": "[3]; i.v., 1 h", "result": "28.12 (5.43) % ID/g tissue"}, {"measurement": "Biodistribution, Lung", "setting": "[3]; i.v., 1 h", "result": "4.67 (0.85) % ID/g tissue"}, {"measurement": "Biodistribution, Muscle", "setting": "[3]; i.v., 1 h", "result": "0.86 (0.21) % ID/g tissue"}, {"measurement": "Biodistribution, Pancreas", "setting": "[3]; i.v., 1 h", "result": "1.99 (0.52) % ID/g tissue"}, {"measurement": "Biodistribution, Small intestine", "setting": "[3]; i.v., 1 h", "result": "85.58 (7.68) % ID/g tissue"}, {"measurement": "Biodistribution, Spleen", "setting": "[3]; i.v., 1 h", "result": "3.20 (0.62) % ID/g tissue"}, {"measurement": "Biodistribution, Stomach", "setting": "[3]; i.v., 1 h", "result": "1.04 (0.36) % ID/organ"}, {"measurement": "Biodistribution, Blood", "setting": "[3]; i.v., 4 h", "result": "0.77 (0.07) % ID/g tissue"}, {"measurement": "Biodistribution, Bone", "setting": "[3]; i.v., 4 h", "result": "0.24 (0.20) % ID/g tissue"}, {"measurement": "Biodistribution, Brain", "setting": "[3]; i.v., 4 h", "result": "0.04 (0.02) % ID/g tissue"}, {"measurement": "Biodistribution, Heart", "setting": "[3]; i.v., 4 h", "result": "0.60 (0.67) % ID/g tissue"}, {"measurement": "Biodistribution, Kidney", "setting": "[3]; i.v., 4 h", "result": "1.62 (0.26) % ID/g tissue"}, {"measurement": "Biodistribution, Large intestine", "setting": "[3]; i.v., 4 h", "result": "144.21 (10.97) % ID/g tissue"}, {"measurement": "Biodistribution, Liver", "setting": "[3]; i.v., 4 h", "result": "12.40 (1.06) % ID/g tissue"}, {"measurement": "Biodistribution, Lung", "setting": "[3]; i.v., 4 h", "result": "1.02 (0.28) % ID/g tissue"}, {"measurement": "Biodistribution, Muscle", "setting": "[3]; i.v., 4 h", "result": "0.27 (0.08) % ID/g tissue"}, {"measurement": "Biodistribution, Pancreas", "setting": "[3]; i.v., 4 h", "result": "0.49 (0.12) % ID/g tissue"}, {"measurement": "Biodistribution, Small intestine", "setting": "[3]; i.v., 4 h", "result": "9.82 (3.17) % ID/g tissue"}, {"measurement": "Biodistribution, Spleen", "setting": "[3]; i.v., 4 h", "result": "0.71 (0.19) % ID/g tissue"}, {"measurement": "Biodistribution, Stomach", "setting": "[3]; i.v., 4 h", "result": "0.48 (0.19) % ID/organ"}]}]}
